Results on 17 molecules are retold here after PubChem BioAssay AID248 (DTP/NCI, 2004).

Several values for one entry are separate records, joined by “and”; a condition that tells them apart may be missing. Equal values may be shown once. Inconclusive results and toxic doses are left out.

This assay concerns L1210 leukemia ip in BDF1 mice, survival T/C. Put plainly: NCI In Vivo Anticancer Drug Screen. Data for tumor model L1210 Leukemia (intraperitoneal) in B6D2F1 (BDF1) mice. Conditions: endpoint: mean survival time, higher = longer survival. In a few lines: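 In this screen, tumor-bearing mice given compound are compared to those given vehicle, and their survival values are reported as a treated-to-control quotient.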

Where [1] appears, read: dose: 100.0 mg/kg/injection, schedule: Q01DX001 (ip), vehicle: saline.
Setting [2] is: dose: 200.0 mg/kg/injection, schedule: Q01DX001 (ip), vehicle: saline.
Where [3] appears, read: dose: 400.0 mg/kg/injection, schedule: Q01DX001 (ip), vehicle: saline.
[4] abbreviates: dose: 100.0 mg/kg/injection, schedule: Q04DX003 (ip), vehicle: saline with Tween-80.
[5] abbreviates: dose: 200.0 mg/kg/injection, schedule: Q04DX003 (ip), vehicle: saline with Tween-80.
Where [6] appears, read: dose: 400.0 mg/kg/injection, schedule: Q04DX003 (ip), vehicle: saline with Tween-80.
The mark [7] stands for this setting: dose: 50.0 mg/kg/injection, schedule: Q01DX009 (ip), vehicle: Klucel (hydroxypropylcellulose) (HPC).
[8] abbreviates: dose: 100.0 mg/kg/injection, schedule: Q01DX009 (ip), vehicle: Klucel (hydroxypropylcellulose) (HPC).
[9] abbreviates: dose: 100.0 mg/kg/injection, schedule: Q04DX002 (ip), vehicle: Klucel (hydroxypropylcellulose) (HPC).
The mark [10] stands for this setting: dose: 200.0 mg/kg/injection, schedule: Q01DX009 (ip), vehicle: Klucel (hydroxypropylcellulose) (HPC).
[11] abbreviates: dose: 200.0 mg/kg/injection, schedule: Q04DX002 (ip), vehicle: Klucel (hydroxypropylcellulose) (HPC).
Setting [12] is: dose: 100.0 mg/kg/injection, schedule: Q04DX003 (ip), vehicle: Klucel (hydroxypropylcellulose) (HPC).
Where [13] appears, read: dose: 200.0 mg/kg/injection, schedule: Q04DX003 (ip), vehicle: Klucel (hydroxypropylcellulose) (HPC).
Setting [14] is: dose: 400.0 mg/kg/injection, schedule: Q01DX009 (ip), vehicle: Klucel (hydroxypropylcellulose) (HPC).
The mark [15] stands for this setting: dose: 400.0 mg/kg/injection, schedule: Q04DX003 (ip), vehicle: Klucel (hydroxypropylcellulose) (HPC).
The mark [16] stands for this setting: dose: 100.0 mg/kg/injection, schedule: Q01DX009 (ip), vehicle: other.
[17] abbreviates: dose: 200.0 mg/kg/injection, schedule: Q01DX009 (ip), vehicle: other.
Setting [18] is: dose: 400.0 mg/kg/injection, schedule: Q04DX002 (ip), vehicle: Klucel (hydroxypropylcellulose) (HPC).

On to `CCOP(=O)(NC(C)(C)C)OCC`, for which the T/C by setting is: (dose: 50.0 mg/kg/injection, schedule: Q01DX001 (ip), vehicle: carboxymethylcellulose (CMC)) 107 % of control; (dose: 100.0 mg/kg/injection, schedule: Q01DX001 (ip), vehicle: carboxymethylcellulose (CMC)) 107 % of control; (dose: 200.0 mg/kg/injection, schedule: Q01DX001 (ip), vehicle: carboxymethylcellulose (CMC)) 105 % of control; (dose: 400.0 mg/kg/injection, schedule: Q01DX001 (ip), vehicle: carboxymethylcellulose (CMC)) 100 % of control.

`COc1ccc2c(c1)OC(OC)(c1ccccc1)C(O)(OC)C2=O` (centres undefined): the T/C is 96 % of control (dose: 50.0 mg/kg/injection, schedule: Q01DX001 (ip), vehicle: saline); 98 % of control under setting [1]; 96 % of control under setting [2]; 98 % of control under setting [3].

With `C(=N\N=C\c1cccs1)/c1cccs1`, the T/C reads like this: under setting [4], 98 % of control; under setting [5], 98 % of control; under setting [6], 95 % of control.

On to `[O-][n+]1ccccc1-c1ccccc1`, for which the T/C by setting is: under setting [7], 104 % of control; under setting [8], 101 % of control; under setting [9], 104 % of control; under setting [10], 118 % of control; under setting [11], 107 % of control.

With `CC(C)CP(=O)(CC(C)C)C1CCCCC1`, the T/C is, setting by setting: under setting [4], 97 % of control; under setting [5], 99 % of control.

As to `NC(=O)NNC(=O)c1ccccc1`, the T/C runs as follows: under setting [8], 100 % of control; under setting [12], 96 % of control; under setting [10], 104 % of control; under setting [13], 94 % of control; under setting [14], 98 % of control; under setting [15], 100 % of control.

`[N-]=[N+]=CC(=O)NCC(=O)NO`: the T/C reads like this: (dose: 50.0 mg/kg/injection, schedule: Q01DX001 (ip), vehicle: water) 117 % of control; (dose: 75.0 mg/kg/injection, schedule: Q01DX009 (ip), vehicle: water) 95 % of control; (dose: 100.0 mg/kg/injection, schedule: Q01DX001 (ip), vehicle: water) 96 % of control; under setting [16], 100 % of control; (dose: 150.0 mg/kg/injection, schedule: Q01DX009 (ip), vehicle: water) 120 % of control; (dose: 180.0 mg/kg/injection, schedule: Q01DX001 (ip), vehicle: water) 116 % of control. Moreover, the T/C by setting is: (dose: 200.0 mg/kg/injection, schedule: Q01DX001 (ip), vehicle: water) 102 % of control; under setting [17], 101 % of control; (dose: 270.0 mg/kg/injection, schedule: Q01DX001 (ip), vehicle: water) 110 % of control; (dose: 270.0 mg/kg/injection, schedule: Q01DX009 (ip), vehicle: water) 155 % of control; (dose: 300.0 mg/kg/injection, schedule: Q01DX009 (ip), vehicle: other) 111 % of control; (dose: 300.0 mg/kg/injection, schedule: Q01DX009 (ip), vehicle: water) 123 % of control. Moreover, the T/C (dose: 400.0 mg/kg/injection, schedule: Q01DX001 (ip), vehicle: water) is 108 % of control and 111 % of control and 113 % of control; the T/C (dose: 450.0 mg/kg/injection, schedule: Q01DX008 (ip), vehicle: water) is 150 % of control; the T/C (dose: 500.0 mg/kg/injection, schedule: Q01DX009 (ip), vehicle: other) is 97 % of control; the T/C (dose: 600.0 mg/kg/injection, schedule: Q01DX009 (ip), vehicle: water) was 91 % of control; the T/C (dose: 1600.0 mg/kg/injection, schedule: Q01DX001 (ip), vehicle: water) is 90 % of control.

As to `Nc1nc(C=O)c(Cc2ccc3ccccc3c2)c(=O)[nH]1`, the T/C under setting [4] was 100 % of control, the T/C under setting [5] was 108 % of control and the T/C under setting [6] was 110 % of control.

As to `Nc1ncnc2c1c(-c1nn[nH]n1)cn2C1OC(CO)C(O)C1O` (centres undefined), the T/C was 121 % of control (dose: 12.5 mg/kg/injection, schedule: Q01DX005 (ip), vehicle: saline); 122 % of control (dose: 12.5 mg/kg/injection, schedule: Q01DX009 (ip), vehicle: saline); 108 % of control (dose: 50.0 mg/kg/injection, schedule: Q01DX005 (ip), vehicle: saline); 98 % of control (dose: 50.0 mg/kg/injection, schedule: Q01DX009 (ip), vehicle: saline).

Take `CCCC(OC(C[N+](=O)[O-])C(Cl)(Cl)Cl)c1ccccc1` (centres undefined): the T/C is, setting by setting: (dose: 100.0 mg/kg/injection, schedule: Q01DX009 (ip), vehicle: saline with Tween-80) 97 % of control; under setting [4], 98 % of control; (dose: 200.0 mg/kg/injection, schedule: Q01DX009 (ip), vehicle: saline with Tween-80) 101 % of control; under setting [5], 96 % of control; (dose: 400.0 mg/kg/injection, schedule: Q01DX009 (ip), vehicle: saline with Tween-80) 107 % of control; under setting [6], 96 % of control.

`CNc1cc(C(C)C)ccc1C`: the T/C (dose: 12.5 mg/kg/injection, schedule: Q01DX009 (ip), vehicle: Klucel (hydroxypropylcellulose) (HPC)) is 102 % of control; the T/C (dose: 25.0 mg/kg/injection, schedule: Q01DX009 (ip), vehicle: Klucel (hydroxypropylcellulose) (HPC)) is 96 % of control; the T/C under setting [7] was 113 % of control; the T/C (dose: 100.0 mg/kg/injection, schedule: Q01DX009 (sc), vehicle: olive oil, sesame oil, peanut oil) is 114 % of control; the T/C (dose: 100.0 mg/kg/injection, schedule: Q04DX003 (sc), vehicle: olive oil, sesame oil, peanut oil) was 108 % of control; the T/C (dose: 200.0 mg/kg/injection, schedule: Q01DX009 (sc), vehicle: olive oil, sesame oil, peanut oil) is 105 % of control. Moreover, the T/C by setting is: (dose: 200.0 mg/kg/injection, schedule: Q04DX003 (sc), vehicle: olive oil, sesame oil, peanut oil) 105 % of control; (dose: 400.0 mg/kg/injection, schedule: Q01DX009 (sc), vehicle: olive oil, sesame oil, peanut oil) 110 % of control; (dose: 400.0 mg/kg/injection, schedule: Q04DX003 (sc), vehicle: olive oil, sesame oil, peanut oil) 103 % of control.

Regarding `CN(C(=O)OCc1ccccc1)C(Cc1ccccc1)C(=O)O` (centres undefined), the T/C (dose: 100.0 mg/kg/injection, schedule: Q01DX001 (ip), vehicle: other) is 95 % of control and the T/C (dose: 200.0 mg/kg/injection, schedule: Q01DX001 (ip), vehicle: other) was 96 % of control.

For `O=S(=O)(Cc1ccccc1)C(Cl)(Cl)c1ccccc1`, the T/C was 91 % of control under setting [1]; 96 % of control under setting [8]; 110 % of control under setting [12]; 107 % of control under setting [2]; 102 % of control under setting [10]; 104 % of control under setting [13]. The T/C is 105 % of control under setting [3], 95 % of control under setting [14] and 103 % of control under setting [15].

As to `O=C(O)c1ccccc1Cc1ccccc1`, the T/C by setting is: under setting [9], 94 % of control; under setting [11], 98 % of control; under setting [18], 100 % of control.

On to `COc1c2ccoc2c(OCC=C(C)C)c2oc(=O)ccc12`, for which the T/C reads like this: under setting [16], 98 % of control; (dose: 100.0 mg/kg/injection, schedule: Q04DX003 (ip), vehicle: saline sonified) 107 % of control; under setting [17], 111 % of control; (dose: 200.0 mg/kg/injection, schedule: Q04DX003 (ip), vehicle: saline sonified) 102 % of control; (dose: 400.0 mg/kg/injection, schedule: Q01DX009 (ip), vehicle: other) 95 % of control; (dose: 400.0 mg/kg/injection, schedule: Q04DX003 (ip), vehicle: saline sonified) 97 % of control.

On to `CC1=CC(c2c(O)cccc2O)C(=C(C)C)CC1` (centres undefined), for which the T/C under setting [7] is 95 % of control, the T/C under setting [8] is 95 % of control and the T/C under setting [10] is 95 % of control.

Take `Cc1c(C)c(C)c(CCl)c(CCl)c1C`: the T/C is 97 % of control under setting [9], 90 % of control under setting [11] and 122 % of control under setting [18].
